Results reported in patent US10837058B2, “Markers of papillary and reticular fibroblasts and uses thereof” (CHANEL PARFUMS BEAUTE, priority 2011, dated 2020).

Key:
Assay type in all cases: cell-based, human
[1] = system: reticular or papillary fibroblasts; experiment: Compound screening on reticular or papillary fibroblasts, qPCR of 3 papillary and 3 reticular markers; conditions: high=0.01% v/v, low=0.0001% v/v, 24 hrs; CCRL1, NTN1, PDPN, MGP, PPP1R14A, TGM2; FIG. 2
Procedure: The fibroblasts were isolated and cultured as described above (example 1).
12000 reticular or papillary fibroblasts were seeded in 12 well culture plates (Costar). The fibroblasts were cultured for 5 days until 90% of the surface area was covered. Two different concentrations (low/high) of compounds were applied for 24 hrs. Pictures were taken before and after application. No differences in morphology and were observed (data not shown). RNA was isolated as described in example 1.
qPCR analysis was performed using 3 papillary (CCRL1, NTN1 and PDPN) and 3 reticular (MGP, PPP1R14A and TGM2) markers, according to example 1. The expression was normalized using two reference genes (SND1 and EI24). The effect of verbascoside was determined by comparing the expression of the genes to the expression of vehicle treated fibroblasts.

[2] = system: papillary fibroblasts; experiment: TGF-β1 treatment of monolayer papillary fibroblasts, marker expression by qPCR; conditions: TGF-β1 2 or 10 ng/mL, 2 or 4 days
Procedure: cDNA was generated of 1 μg RNA using the iScript cDNA synthesis kit (BioRad, Veenendaal, The Netherlands) according to manufacturer's instructions. PCR reactions were based on the SYBR Green method (BioRad) and consisted of 2× Sybr Green Mastermix, 1 ng cDNA template and 500 nM of forward and reverse primers. The PCRs were run on the MyIQ system (BioRad). The PCR cycles were: 3,5 minutes at 95 C to activate the polymerase, 35 cycles of 20 sec 95 C and 40 sec 60 C, followed by the generation of a melt curve. Primers were checked before on dilution series of normal fibroblasts cDNA. References genes were analyzed with the GeNorm method (20). Expression analysis was performed with the BioRad Software (iQ5) and was based on the delta delta Ct method with the reference genes that were most stably expressed in the GeNorm analysis.
(§1) Monolayer cultures of papillary fibroblasts were treated with TGF-β1, 2 or 10 ng/mL, for 2 or 4 days. Then the expression of the reticular and papillary markers was measured by qPCR and by IHC staining on the cultures.

[3] = system: papillary fibroblasts; experiment: TGF-β1 treatment of monolayer papillary fibroblasts, IHC staining and morphology; conditions: TGF-β1 2 or 10 ng/mL, 2 or 4 days
Procedure: For IHC on monolayer cell cultures, fibroblasts were grown on glass slides until nearly confluent, washed in PBS and fixed with 4% formaldehyde. Staining was visualized by a secondary antibody with a fluorescent dye (Cy3). DAPI was used as counterstain.
as §1

Compound | effect on reticular/papillary marker gene signature (qPCR, vs vehicle treated fibroblasts) [1] | differentiation of papillary fibroblasts as measured by qPCR ([2]; monolayer cell cultures) | expression of papillary markers (qPCR) ([2]; data not shown) | expression of reticular markers (qPCR) ([2]; data not shown) | myofibroblast differentiation: a-SMA expression [3] | myofibroblast differentiation: morphological changes [3] | papillary marker PDPN by IHC staining [3] | reticular marker TGM2 by IHC staining [3]
C[C@@H]1O[C@@H](O[C@@H]2[C@@H](O)[C@H](OCCc3ccc(O)c(O)c3)O[C@H](CO)[C@H]2OC(=O)/C=C/c2ccc(O)c(O)c2)[C@H](O)[C@H](O)[C@H]1O [Verbascoside] | able to alter the reticular signature into a papillary signature |  |  |  |  |  |  | 
TGF-β1: TGF-β1, can induce differentiation of fibroblasts to myofibroblasts |  | caused differentiation to reticular fibroblasts | decreased | increased | increased a-SMA expression | increase in cell size | loss of papillary marker PDPN | gain of reticular marker TGM2
